Results from ChEMBL document CHEMBL4602617, “Discovery and optimization of heteroaryl piperazines as potent and selective PI3Kδ inhibitors” (Bioorg Med Chem Lett, 2020).

Experiments:
Homo sapiens [1] = organism: Homo sapiens; assay: Selectivity index, ratio IC50 for inhibition of recombinant human full-length N-terminal His6-tagged p110alpha/untagged full-length p85alpha expressed in baculovirus infected Sf21 cells to ratio IC50 for inhibition of recombinant human full-length N-terminal GST-tagged p110delta/untagged full-length p85alpha expressed in baculovirus infected Sf21 cells
Homo sapiens [2] = organism: Homo sapiens; assay: Selectivity index, ratio IC50 for inhibition of recombinant human N-terminal His6-tagged full-length p120gamma expressed in Sf21 insect cells to ratio IC50 for inhibition of recombinant human full-length N-terminal GST-tagged p110delta/untagged full-length p85alpha expressed in baculovirus infected Sf21 cells
[3] = Distribution coefficient, logD of compound by HPLC analysis; type: physicochemical; settings: octanol/water
[4] = Clearance in dog plasma at 0.5 mg/kg, iv or 1 mg/kg, po; type: ADME, organism-based, Canis lupus familiaris
[5] = target: RAC-beta serine/threonine-protein kinase (Homo sapiens, UniProt P31751); assay: Inhibition of recombinant full length human His-tagged AKT2 expressed in baculovirus expression system using Ser/Thr-06 peptide as substrate incubated for 60 mins in presence of ATP by Z'-LYTE assay
[6] = target: Ribosomal protein S6 kinase alpha-3 (Homo sapiens, UniProt P51812); assay: Inhibition of recombinant full length human His-tagged RSK2 expressed in baculovirus expression system using serine/threonine-6 peptide as substrate incubated for 60 mins in presence of ATP by Z'-LYTE assay
[7] = target: Vasopressin V1b receptor (Homo sapiens) (UniProt P47901); assay: Displacement of [3H]-(Arg8)-Vasopressin from recombinant full length human V1B receptor expressed in CHO-K1 cells at 10 uM after 120 mins by radiometric scintillation analysis relative to control; type: cell-based
Chain of Vasopressin V1b receptor (Homo sapiens) (P47901 whole entry): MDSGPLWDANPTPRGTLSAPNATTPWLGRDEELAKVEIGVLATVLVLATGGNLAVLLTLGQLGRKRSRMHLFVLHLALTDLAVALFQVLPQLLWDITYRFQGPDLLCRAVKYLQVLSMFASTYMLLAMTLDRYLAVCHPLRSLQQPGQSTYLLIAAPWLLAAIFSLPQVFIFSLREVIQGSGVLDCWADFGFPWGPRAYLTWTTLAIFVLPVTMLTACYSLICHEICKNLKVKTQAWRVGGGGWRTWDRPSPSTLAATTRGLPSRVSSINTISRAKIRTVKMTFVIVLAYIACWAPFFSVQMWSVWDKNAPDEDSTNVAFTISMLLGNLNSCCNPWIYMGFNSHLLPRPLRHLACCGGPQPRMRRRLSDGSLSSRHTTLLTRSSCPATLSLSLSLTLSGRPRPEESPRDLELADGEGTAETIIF

[8] = target: Progesterone receptor (Homo sapiens) (UniProt P06401); assay: Inhibition of human progesterone B receptor at 10 uM relative to control
[9] = target: Muscarinic acetylcholine receptor M3 (Homo sapiens) (UniProt P20309); assay: Displacement of [3H]N-Methylscopolamine from full length human recombinant Muscarinic M3 receptor expressed in CHOK1 cells at 10 uM measured after 120 mins by radiometric scintillation analysis relative to control; type: cell-based; settings: CHO-K1
Chain of Muscarinic acetylcholine receptor M3 (Homo sapiens) (P20309 whole entry, looked up): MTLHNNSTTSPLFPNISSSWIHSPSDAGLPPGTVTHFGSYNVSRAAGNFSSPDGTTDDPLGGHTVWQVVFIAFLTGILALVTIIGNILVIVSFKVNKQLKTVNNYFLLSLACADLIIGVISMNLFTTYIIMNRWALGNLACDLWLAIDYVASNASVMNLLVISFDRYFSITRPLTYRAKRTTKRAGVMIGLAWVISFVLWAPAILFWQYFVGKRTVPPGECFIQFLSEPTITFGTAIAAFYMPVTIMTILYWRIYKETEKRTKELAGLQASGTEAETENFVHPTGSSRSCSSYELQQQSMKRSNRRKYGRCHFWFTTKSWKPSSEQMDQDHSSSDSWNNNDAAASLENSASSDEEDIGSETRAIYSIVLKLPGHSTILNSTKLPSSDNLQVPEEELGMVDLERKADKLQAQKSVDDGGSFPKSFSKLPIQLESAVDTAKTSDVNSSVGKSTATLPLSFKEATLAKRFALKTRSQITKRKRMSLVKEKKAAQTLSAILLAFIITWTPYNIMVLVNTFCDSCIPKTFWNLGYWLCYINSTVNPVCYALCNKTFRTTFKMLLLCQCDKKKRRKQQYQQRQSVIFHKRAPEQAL

[10] = target: Cysteinyl leukotriene receptor 2 (Homo sapiens) (UniProt Q9NS75); assay: Inhibition of human CYSLt2 receptor at 10 uM relative to control
[11] = target: C-C chemokine receptor type 1 (Homo sapiens) (UniProt P32246); assay: Displacement of [125I]MIP-1alpha from recombinant full length human recombinant CCR1 expressed in Chem2 cells at 10 uM measured after 3 hrs by radiometric scintillation analysis relative to control; type: cell-based
[12] = target: Death-associated protein kinase 1 (Homo sapiens, UniProt P53355); assay: Inhibition of recombinant human GST-tagged DAPK1 catalytic domain (1 to 363 residues) expressed in baculovirus expression system using ZIPtide peptide as substrate incubated for 60 mins in presence of ATP by Adapta assay
[13] = target: Death-associated protein kinase 3 (Homo sapiens, UniProt O43293); assay: Inhibition of recombinant human full-length GST-tagged DAPK3 expressed in baculovirus expression system using FRET-labeled Ser/Thr 13 peptide as substrate measured after 1 hr in presence of ATP by Z'-lyte assay
Ephrin type-A receptor 2 = Ephrin type-A receptor 2 (Homo sapiens, UniProt P29317); assay: Inhibition of recombinant human GST-tagged EPHA2 cytoplasmic domain expressed in baculovirus expression system using tyrosine-01 peptide as substrate incubated for 60 mins in presence of ATP by Z'-Lyte assay
Chain of Ephrin type-A receptor 2 (P29317 whole entry, the tested form may be a part): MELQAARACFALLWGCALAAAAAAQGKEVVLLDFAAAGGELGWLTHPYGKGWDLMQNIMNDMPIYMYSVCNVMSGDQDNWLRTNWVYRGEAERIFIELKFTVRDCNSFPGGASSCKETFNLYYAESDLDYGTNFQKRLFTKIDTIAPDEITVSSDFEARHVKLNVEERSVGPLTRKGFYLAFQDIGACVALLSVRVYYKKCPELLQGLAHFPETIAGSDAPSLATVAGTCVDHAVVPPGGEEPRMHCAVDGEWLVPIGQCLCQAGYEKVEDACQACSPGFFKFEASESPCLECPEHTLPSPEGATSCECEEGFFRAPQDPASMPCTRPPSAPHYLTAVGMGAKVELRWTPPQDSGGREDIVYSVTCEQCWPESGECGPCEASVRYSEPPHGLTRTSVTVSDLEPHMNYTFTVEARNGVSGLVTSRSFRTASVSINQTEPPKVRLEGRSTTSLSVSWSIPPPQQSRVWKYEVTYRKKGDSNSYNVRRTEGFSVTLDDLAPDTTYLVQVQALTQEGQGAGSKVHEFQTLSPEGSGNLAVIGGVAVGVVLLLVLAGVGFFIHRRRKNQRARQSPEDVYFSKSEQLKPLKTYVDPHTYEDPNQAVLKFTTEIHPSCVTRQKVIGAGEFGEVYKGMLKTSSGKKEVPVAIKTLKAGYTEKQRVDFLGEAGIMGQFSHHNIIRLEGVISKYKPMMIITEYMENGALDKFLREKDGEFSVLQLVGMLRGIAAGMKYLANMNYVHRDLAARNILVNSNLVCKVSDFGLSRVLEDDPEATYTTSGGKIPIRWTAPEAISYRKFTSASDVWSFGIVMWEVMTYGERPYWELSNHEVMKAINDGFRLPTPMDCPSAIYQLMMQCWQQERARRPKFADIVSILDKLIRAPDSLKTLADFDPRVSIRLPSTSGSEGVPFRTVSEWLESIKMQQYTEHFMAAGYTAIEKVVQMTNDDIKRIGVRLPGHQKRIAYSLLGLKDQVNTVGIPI

Ephrin type-B receptor 2 = Ephrin type-B receptor 2 (Homo sapiens, UniProt P29323); assay: Inhibition of recombinant human GST-tagged EPHB2 catalytic domain (616 to 884 residues) expressed in baculovirus expression system using tyrosine-2 peptide as substrate incubated for 60 mins in presence of ATP by Z'-LYTE assay
[14] = target: Tyrosine-protein kinase ITK/TSK (Homo sapiens, UniProt Q08881); assay: Inhibition of recombinant full length human GST-tagged ITK expressed in baculovirus expression system using tyrosine-1 peptide as substrate incubated for 60 mins in presence of ATP by Z'-LYTE assay
Chain of Tyrosine-protein kinase ITK/TSK (Q08881 whole entry): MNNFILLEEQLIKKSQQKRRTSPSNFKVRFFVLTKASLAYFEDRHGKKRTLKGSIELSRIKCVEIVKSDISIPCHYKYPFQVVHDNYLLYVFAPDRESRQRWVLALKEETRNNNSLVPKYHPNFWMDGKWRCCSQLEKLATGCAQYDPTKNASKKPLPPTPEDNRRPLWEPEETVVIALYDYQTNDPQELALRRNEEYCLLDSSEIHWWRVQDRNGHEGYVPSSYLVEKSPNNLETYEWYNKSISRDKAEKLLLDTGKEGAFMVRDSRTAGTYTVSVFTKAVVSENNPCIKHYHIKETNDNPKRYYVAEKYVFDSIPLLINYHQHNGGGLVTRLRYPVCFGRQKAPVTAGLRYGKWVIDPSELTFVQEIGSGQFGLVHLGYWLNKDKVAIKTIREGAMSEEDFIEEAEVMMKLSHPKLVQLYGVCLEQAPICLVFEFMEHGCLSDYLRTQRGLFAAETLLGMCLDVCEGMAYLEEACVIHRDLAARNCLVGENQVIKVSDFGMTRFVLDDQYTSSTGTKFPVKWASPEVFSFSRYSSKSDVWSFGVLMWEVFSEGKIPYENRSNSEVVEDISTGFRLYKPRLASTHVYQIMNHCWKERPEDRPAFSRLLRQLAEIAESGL

[15] = target: Mitogen-activated protein kinase kinase kinase kinase 2 (Homo sapiens, UniProt Q12851); assay: Inhibition of recombinant full length human HIs-tagged MAP4K2 expressed in baculovirus expression system using serine/threonine-7 peptide as substrate incubated for 60 mins in presence of ATP by Z'-LYTE assay
[16] = target: Mitogen-activated protein kinase 13 (Homo sapiens, UniProt O15264); assay: Inhibition of recombinant full length human His-tagged p38delta expressed in baculovirus expression system using serine/threonine-3 peptide as substrate incubated for 60 mins in presence of ATP by Z'-LYTE assay
Chain of Mitogen-activated protein kinase 13 (O15264 whole entry): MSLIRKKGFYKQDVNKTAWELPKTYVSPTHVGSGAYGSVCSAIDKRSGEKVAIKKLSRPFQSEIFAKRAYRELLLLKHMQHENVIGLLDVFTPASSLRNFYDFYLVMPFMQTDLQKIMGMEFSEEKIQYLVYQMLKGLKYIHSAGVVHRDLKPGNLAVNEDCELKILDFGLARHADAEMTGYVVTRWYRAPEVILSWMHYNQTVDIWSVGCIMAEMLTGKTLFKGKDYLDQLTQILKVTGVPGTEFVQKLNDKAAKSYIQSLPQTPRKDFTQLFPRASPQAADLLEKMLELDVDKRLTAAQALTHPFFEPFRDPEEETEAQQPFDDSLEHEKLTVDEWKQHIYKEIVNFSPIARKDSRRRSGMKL

[17] = target: Serine/threonine-protein kinase MARK1 (Homo sapiens, UniProt Q9P0L2); assay: Inhibition of recombinant full length human GST-tagged MARK1 expressed in baculovirus expression system using serine/threonine-21 peptide as substrate incubated for 60 mins in presence of ATP by Z'-LYTE assay
Chain of Serine/threonine-protein kinase MARK1 (Q9P0L2 whole entry): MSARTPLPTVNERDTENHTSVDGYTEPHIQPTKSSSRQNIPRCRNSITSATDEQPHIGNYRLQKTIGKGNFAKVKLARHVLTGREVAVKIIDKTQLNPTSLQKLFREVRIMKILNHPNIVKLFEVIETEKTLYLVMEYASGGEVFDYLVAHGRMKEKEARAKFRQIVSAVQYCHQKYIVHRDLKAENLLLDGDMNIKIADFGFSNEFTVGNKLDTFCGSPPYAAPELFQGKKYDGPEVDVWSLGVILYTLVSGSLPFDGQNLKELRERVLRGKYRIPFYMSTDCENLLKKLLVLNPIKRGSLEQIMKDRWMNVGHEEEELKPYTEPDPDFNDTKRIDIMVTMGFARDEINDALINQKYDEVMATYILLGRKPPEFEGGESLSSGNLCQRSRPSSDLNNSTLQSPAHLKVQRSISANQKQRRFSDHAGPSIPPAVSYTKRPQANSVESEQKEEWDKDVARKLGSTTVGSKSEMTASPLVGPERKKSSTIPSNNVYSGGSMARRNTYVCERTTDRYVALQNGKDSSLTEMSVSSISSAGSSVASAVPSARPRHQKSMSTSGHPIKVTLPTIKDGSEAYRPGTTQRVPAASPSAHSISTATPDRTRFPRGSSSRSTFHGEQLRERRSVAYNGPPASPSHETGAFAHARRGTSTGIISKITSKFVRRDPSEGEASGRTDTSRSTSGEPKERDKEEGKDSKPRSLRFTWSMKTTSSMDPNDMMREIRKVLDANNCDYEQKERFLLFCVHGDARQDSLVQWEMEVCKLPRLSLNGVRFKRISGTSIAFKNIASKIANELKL

[18] = target: Serine/threonine-protein kinase Nek2 (Homo sapiens, UniProt P51955); assay: Inhibition of recombinant full length human His-tagged NEK2 expressed in baculovirus expression system using serine/threonine-7 peptide as substrate incubated for 60 mins in presence of ATP by Z'-LYTE assay
[19] = target: Platelet-derived growth factor receptor alpha (Homo sapiens, UniProt P16234); assay: Inhibition of recombinant human GST-tagged PDGFRalpha cytoplasmic domain (550 to 1089 residues) expressed in baculovirus expression system using tyrosine-4 peptide as substrate incubated for 60 mins in presence of ATP by Z'-LYTE assay
[20] = target: Phosphorylase b kinase gamma catalytic chain, liver/testis isoform (Homo sapiens, UniProt P15735); assay: Inhibition of recombinant full length human N-terminal GST-tagged PHKG2 expressed in baculovirus expression system using serine/threonine-7 peptide as substrate incubated for 60 mins in presence of ATP by Z'-LYTE assay
[21] = target: Protein kinase C alpha type (Homo sapiens, UniProt P17252); assay: Inhibition of recombinant human GST-tagged PKCalpha expressed in insect expression system using serine/threonine-7 peptide as substrate incubated for 60 mins in presence of ATP by Z'-LYTE assay
[22] = target: Proto-oncogene tyrosine-protein kinase receptor Ret (Homo sapiens, UniProt P07949, V804L); assay: Inhibition of recombinant human GST-tagged RET V804L mutant cytoplasmic domain expressed in baculovirus expression system using tyr02 peptide as substrate incubated for 60 mins in presence of ATP by Z'-LYTE assay
Chain of Proto-oncogene tyrosine-protein kinase receptor Ret (P07949 29-1114 V804L limits assumed): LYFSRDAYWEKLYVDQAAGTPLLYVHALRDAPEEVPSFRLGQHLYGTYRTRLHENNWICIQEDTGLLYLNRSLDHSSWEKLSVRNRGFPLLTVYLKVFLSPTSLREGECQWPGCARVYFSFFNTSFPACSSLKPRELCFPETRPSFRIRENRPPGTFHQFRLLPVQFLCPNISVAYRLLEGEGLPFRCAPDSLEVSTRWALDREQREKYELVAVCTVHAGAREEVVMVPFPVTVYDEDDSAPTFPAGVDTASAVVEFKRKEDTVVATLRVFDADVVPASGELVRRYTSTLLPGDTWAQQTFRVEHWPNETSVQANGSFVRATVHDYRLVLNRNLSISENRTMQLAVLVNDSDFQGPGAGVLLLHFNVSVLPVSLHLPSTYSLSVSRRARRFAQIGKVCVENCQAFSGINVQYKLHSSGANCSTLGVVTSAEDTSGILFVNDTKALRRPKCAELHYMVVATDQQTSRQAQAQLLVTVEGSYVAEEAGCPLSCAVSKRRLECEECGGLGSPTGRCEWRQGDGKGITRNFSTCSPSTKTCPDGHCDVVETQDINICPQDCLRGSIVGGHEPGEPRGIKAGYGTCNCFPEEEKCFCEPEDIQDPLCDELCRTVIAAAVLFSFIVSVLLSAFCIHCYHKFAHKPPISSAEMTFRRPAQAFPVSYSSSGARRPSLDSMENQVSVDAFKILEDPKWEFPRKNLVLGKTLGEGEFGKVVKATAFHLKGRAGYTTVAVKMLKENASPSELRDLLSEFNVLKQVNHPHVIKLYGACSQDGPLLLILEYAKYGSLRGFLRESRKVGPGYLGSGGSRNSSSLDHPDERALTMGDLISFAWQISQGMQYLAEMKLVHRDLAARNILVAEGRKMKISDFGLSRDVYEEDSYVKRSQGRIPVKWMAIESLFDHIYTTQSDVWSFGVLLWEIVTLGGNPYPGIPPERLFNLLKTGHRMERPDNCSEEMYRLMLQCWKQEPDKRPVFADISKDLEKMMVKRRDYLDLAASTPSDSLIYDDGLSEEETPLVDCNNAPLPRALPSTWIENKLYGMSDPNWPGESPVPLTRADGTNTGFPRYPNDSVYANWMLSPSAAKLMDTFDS

[23] = target: Testis-specific serine/threonine-protein kinase 2 (Homo sapiens, UniProt Q96PF2); assay: Inhibition of recombinant full length human His-tagged STK22B expressed in baculovirus expression system using serine/threonine-04 peptide as substrate incubated for 60 mins in presence of ATP by Z'-LYTE assay
[24] = target: Tyrosine-protein kinase SYK (Homo sapiens, UniProt P43405); assay: Inhibition of recombinant full length human GST-tagged SYK expressed in baculovirus expression system using tyrosine-2 peptide as substrate incubated for 60 mins in presence of ATP by Z'-LYTE assay
[25] = target: Non-receptor tyrosine-protein kinase TYK2 (Homo sapiens, UniProt P29597); assay: Inhibition of recombinant human GST-tagged TYK2 catalytic domain (833 to 1187 residues) expressed in baculovirus expression system using tyrosine-3 peptide as substrate incubated for 60 mins in presence of ATP by Z'-LYTE assay

C[C@@H]1C[C@H]1C(=O)N1CCN(c2cnc(C#N)c(-c3cnn(C)c3)n2)C[C@H]1C
Ratio IC50 (Homo sapiens [1]): > 373 | Ratio IC50 (Homo sapiens [2]): 847 | logD [3]: 1.6 | clearance [4]: 0.48 L/h/kg | IC50 [5]: > 100 µM | IC50 [6]: 29.1 µM | inhibition [7]: 6% | inhibition [8]: 0% | inhibition [9]: 0% | inhibition [10]: 15% | inhibition [11]: 8% | IC50 [12]: > 100 µM | IC50 [13]: > 100 µM | IC50 (Ephrin type-A receptor 2): > 100 µM | IC50 (Ephrin type-B receptor 2): > 100 µM | IC50 [14]: > 100 µM | IC50 [15]: > 100 µM | IC50 [16]: > 100 µM | IC50 [17]: > 100 µM | IC50 [18]: > 100 µM | IC50 [19]: > 100 µM | IC50 [20]: > 100 µM | IC50 [21]: > 100 µM | IC50 [22]: > 100 µM | IC50 [23]: > 100 µM | IC50 [24]: > 100 µM | IC50 [25]: > 100 µM
